# Test results as given in publication PMC3362486 (Chemico-Biological Interactions, 2012).
# How the values were obtained:
# [1] = target: T1, CYP2A6 (Homo sapiens, UniProt P11509); assay: Irreversibility of CYP2A6 inactivation; type: biochemical
# T1 sequence (P11509 1-494): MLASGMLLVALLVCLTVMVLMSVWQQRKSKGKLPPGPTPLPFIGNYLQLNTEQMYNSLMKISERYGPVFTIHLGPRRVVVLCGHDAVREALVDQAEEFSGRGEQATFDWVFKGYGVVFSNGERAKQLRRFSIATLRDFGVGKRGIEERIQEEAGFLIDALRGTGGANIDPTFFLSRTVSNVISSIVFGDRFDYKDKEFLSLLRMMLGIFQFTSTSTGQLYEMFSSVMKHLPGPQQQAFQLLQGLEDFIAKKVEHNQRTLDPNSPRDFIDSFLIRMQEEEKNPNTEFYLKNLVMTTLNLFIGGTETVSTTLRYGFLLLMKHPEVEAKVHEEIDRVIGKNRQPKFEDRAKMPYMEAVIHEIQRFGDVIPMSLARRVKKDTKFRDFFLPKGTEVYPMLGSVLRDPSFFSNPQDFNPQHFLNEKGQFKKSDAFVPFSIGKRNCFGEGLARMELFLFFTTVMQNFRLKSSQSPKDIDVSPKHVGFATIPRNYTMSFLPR
# [2] = target: T2, CYP2A13 (Homo sapiens, UniProt Q16696); assay: biochemical
# T2 sequence (Q16696 1-494): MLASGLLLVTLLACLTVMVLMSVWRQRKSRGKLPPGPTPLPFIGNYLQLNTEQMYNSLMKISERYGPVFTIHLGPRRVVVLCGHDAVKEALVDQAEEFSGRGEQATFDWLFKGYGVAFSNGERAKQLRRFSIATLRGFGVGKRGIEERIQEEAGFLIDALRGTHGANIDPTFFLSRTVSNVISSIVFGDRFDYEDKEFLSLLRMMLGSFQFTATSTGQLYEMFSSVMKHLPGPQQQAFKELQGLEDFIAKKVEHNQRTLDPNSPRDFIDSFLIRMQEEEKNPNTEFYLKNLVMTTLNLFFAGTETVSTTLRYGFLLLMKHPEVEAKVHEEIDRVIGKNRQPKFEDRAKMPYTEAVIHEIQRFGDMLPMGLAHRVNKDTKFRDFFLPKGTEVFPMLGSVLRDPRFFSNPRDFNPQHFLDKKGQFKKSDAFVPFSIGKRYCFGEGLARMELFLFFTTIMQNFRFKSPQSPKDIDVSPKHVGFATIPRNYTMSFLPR
# [3] = target: T1, CYP2A6; assay: CYP2A6 inactivation kinetics and partition ratio; type: biochemical
# [4] = target: T1, CYP2A6; assay: Effect of NADPH and trapping agents; type: biochemical; conditions: for Percent Activity Remaining (10 min relative to 0 min): menthofuran 5 μM or β-nicotyrine 20 μM
# [5] = target: T1, CYP2A6; type: biochemical
# [6] = target: T2, CYP2A13; assay: in vitro; type: biochemical; conditions: for activity at 10 min, 20 µM: human, pH 7.4, probe coumarin (7-hydroxylation), 20 μM in the secondary reaction
# [7] = target: T1, CYP2A6; assay: biochemical; type: biochemical
# [8] = target: T1, CYP2A6; conditions: cited from earlier work
# [9] = target: T2, CYP2A13; conditions: cited from earlier work
Inactivation of CYP2A6 (in words) ([5]; inhibitor 20 μM with NADPH),Inactivation of CYP2A13 (in words) ([6]; inhibitor 20 μM with NADPH),"Inhibition of CYP2A6, times less potent than menthofuran and β-nicotyrine ([7]; comparison of KI values) [times]",SMILES,Reversibility of CYP2A6 inactivation upon removal of unbound small molecules [1],Ki [2] [µM],"KI for inactivation of CYP2A6, fold lower than that of β-nicotyrine [3] [fold]","Partition ratio, times higher than for β-nicotyrine-mediated inactivation ([3]; calculated partition ratio)",Percent Activity Remaining (10 min relative to 0 min) ([4]; inhibitor + NADPH + glutathione (10mM)) [%],Percent Activity Remaining (10 min relative to 0 min) ([4]; inhibitor + NADPH + semicarbazide (10mM)) [%],Percent Activity Remaining (10 min relative to 0 min) ([4]; inhibitor + NADPH) [%],"Loss of CYP2A6 enzyme activity ([4]; menthofuran 5 μM or β-nicotyrine 20 μM with NADPH, 10 min)","Loss of CYP2A6 coumarin 7-hydroxylation activity ([5]; inhibitor 20 μM, in the presence of NADPH) [%]","activity at 10 min, 20 µM [6] [%]",Loss of CYP2A13 activity ([6]; inhibitor 20 μM with NADPH),"Loss of CYP2A13-catalyzed coumarin 7-hydroxylation at higher concentration ([6]; menthofuran 200 μM or 30 min incubations, data not shown)",Ki [7] [µM],Inhibition of CYP2A6 (in words) [8],"Catalytic efficiency (kcat/Km) of metabolic activation, CYP2A13 versus CYP 2A6 [9] [fold]"
,,,"Cc1coc2c1CC[C@@H](C)C2 [Menthofuran, 3,6R-dimethyl-4,5,6,7-tetrahydro-1-benzofuran]",not reversible,1.24 ± 0.26,~50,~ 3.5 times,48,40,43,about 60%,95,91 ± 5,no significant loss,no loss,0.29 ± 0.05,,
no indication,no indication,100,"CC(C)[C@@H]1CC[C@@H](C)C[C@H]1O [Menthol, (1R,2S,5R)-2-isopropyl-5-methylcyclohexanol]",,,,,,,,,,87 ± 11,,,110 ± 10.7,weak inhibitor,
,,,"CN(CCCC(=O)c1cccnc1)N=O [NNK, 4-(methylnitrosamino)-1-(3-pyridyl)-1-butanone]",,,,,,,,,,,,,,,200
